The record followed here is patent US8895695B2, “Template-fixed beta-hairpin peptidomimetics with CXCR4 antagonizing activity” (priority 2003, dated 2014).

Each structure is given as a SMILES string. Bridge positions count the residues as written; N and C are the ends. Square brackets hold non-standard residues; d marks the D form. Peptide text beside a SMILES is read from it. 2Nal = N[C@@H](Cc1ccc2ccccc2c1)C(=O)O; Cit = NC(=O)NCCC[C@H](N)C(=O)O

Series [1] can be described thus: Cytotoxicity assay (MTT reduction), HELA cells.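 Also: MTT reduction read as absorbance at 595 nm, blank-corrected and expressed as percent growth relative to the time-zero cell reading, triplicate wells per concentration.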 The note with it: human, HELA cells (Acc57).
For the next series, the target named is CXCR4 (Homo sapiens, UniProt P61073). Nature of the series: Ca2+-assay method 1: CXCR4-antagonizing activity. The format is cell-based. Set-up: expressed in transfected cells. The note with it: method 1 (Ex. 1-53), CXCR4 transfected pre-B cells, Fura-2; read-out: IC50 (nM) Ca^2+ assay. As for the experimental part: 2.2. Ca^2+-Assay: CXCR4-Antagonizing Activity of the Peptides.
The cells were washed free from Fura-2-AM with a platelet centrifuge and resuspended in 800 μl MSB containing 5 mM D-Glucose. The peptides to be administered were diluted to a 100 fold end concentration in MSB/0.2% PPL, and 8 μl were injected. […] Measurements were done under continuous stirring at 37° C. The signal intension was calibrated with 3 mM CaCl2/[…] lonomycin (maximal fura-2-acetoxymethylester saturation) and 10 μM MnCl2 (minimal Fura-2-acetoxymethylester saturation) and [Ca^2+]i-changes are presented in % fora-2-acetoxymethylester saturation. The rate of [Ca^2+]i-changes was calculated on the basis of the initial [Ca^2+]i-changes and plotted in dependence of chemokine concentration to obtain a sigmoidal curve and to determine the IC50 values.
Osmolarity: 310 mOsm adjusted with NaOH or HCl, adjusted with H2O or PBS.
MSB plus: 5 mM D-glucose in MSB (50 mg/50 mL).
Fura 2-acetoxymethylester: 1 mM stock solution in dimethylsulfoxide.

In series [2] the test system is human red blood cells (hRBC). The series is described as follows: Hemolysis. The series is classed as cell-based. A digest of the protocol:
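Washed fresh human erythrocytes (20% v/v, about 0.9×10^9 cells/ml final) incubated with peptide at 100 μM for 1 h at 37° C. Supernatant diluted 20-fold and OD540 read. Percent hemolysis relative to 0.1% Triton X-100 in H2O (100%), with PBS alone as 0%.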

The subject of series [3] is 'CCR5' cells / Hut/4-3 cells co-cultivation. The series is described as follows: FIGS-Assay. The format is cell-based. As to conditions: 200 nM peptide, 48 hours of co-cultivation. How it is done: The assay was performed according to ref. 5, below. Stock dilutions of the peptides (10 mM) were prepared by dissolving in 10 mM Tris-HCl at room temperature. Stock solutions were kept at +4° C., light protected. Working dilutions were prepared extemporaneously by serial dilution in Phosphate Buffered Saline (PBS) and added in a final volume of 10 μl directly to the cell cultures. After 48 hours of co-cultivation the cultures were rinsed with PBS and then exposed to glutaraldehyde/formaldehyde (0.2%/2%) in PBS for five minutes. For photometric quantification the fixed cultures were subsequently incubated with ortho-nitro-phenyl-galactopyranoside (ONPG) as a β-galactosidase substrate, which was enzymatically converted into the chromophore ortho-nitrophenol (ONP). The read out is directly obtained by measuring optical density of wells at 405 nm in an iEMS 96well-plate reader.
(§1) All fine chemicals came from Merck (Darmstadt, Germany).

The test system of the next series is CCRF-CEM cells. Nature of the series: Chemotactic assay (cell migration assay). The format is cell-based. As to conditions: 1 nM SDF-1, 4 hours. As for the experimental part:
as §1
2.7. Chemotactic Assay (Cell Migration Assay)
The chemotactic response of CCRF-CEM cells to a gradient of stromal cell-derived factor 1α (SDF-1) was measured using disposable assay plates from Neuroprobe (5μ pore size) (Gaithersburg, Md.), according to the manufacturer's directions and references therein [especially ref. 8, below]. Briefly, one 175 cm^2 flask was washed once with Dubecco's phosphate buffered saline (DPBS), and trypsinized for 10 minutes or until cells had lifted. The trypsin was neutralized by the addition of fresh medium containing serum and the cells were pelleted, washed once in DPBS, and resuspended at 1-0.5×10^7 cells/ml in RPMI+0.5% bovine serum albumin (BSA). 45 μl of cell suspension were mixed with 5 μl of 10-fold concentrated PEM peptide diluted in the same assay medium. […] The optical absorbance at 595 nm (ABS595) was read using a Tecan Genios plate reader with Magellan software. The number of cells migrated was determined by comparing ABS595 values against a standard curve generated with a known number of cells in the assay plate and were plotted against SDF-1 concentration to obtain a sigmoidal curve and to determine the IC50 values. The values for IC50 were determined using the Trendline function in Microsoft Excel by fitting a logarithmic curve to the averaged datapoints.

CXCR4, sequence (P61073 whole entry): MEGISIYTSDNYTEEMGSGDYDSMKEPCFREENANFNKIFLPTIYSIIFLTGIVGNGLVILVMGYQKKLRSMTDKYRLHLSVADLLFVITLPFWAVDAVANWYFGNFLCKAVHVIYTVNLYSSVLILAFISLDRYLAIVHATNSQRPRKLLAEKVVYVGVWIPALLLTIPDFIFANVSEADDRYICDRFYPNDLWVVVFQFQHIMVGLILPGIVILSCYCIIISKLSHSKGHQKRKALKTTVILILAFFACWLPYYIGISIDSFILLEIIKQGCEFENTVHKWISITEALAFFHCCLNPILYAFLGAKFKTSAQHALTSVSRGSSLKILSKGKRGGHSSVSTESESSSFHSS

What is called CC50 is the concentration giving 50% cytotoxicity. A high value points to lower toxicity to the cells. One may read the IC50 as the concentration that inhibits the measured activity by half. `N=C(N)NCCC[C@@H]1NC(=O)CNC(=O)CNC(=O)[C@H](CCCNC(=N)N)NC(=O)[C@@H]2CSSC[C@H](NC(=O)[C@H](Cc3ccc4ccccc4c3)NC(=O)[C@H](CCCNC(=N)N)NC1=O)C(=O)N[C@@H](Cc1ccc(O)cc1)C(=O)N[C@@H](CCCNC(N)=O)C(=O)N[C@@H](CCCCN)C(=O)N1CCC[C@@H]1C(=O)N1CCC[C@H]1C(=O)N[C@@H](Cc1ccc(O)cc1)C(=O)N[C@@H](CCCNC(=N)N)C(=O)N[C@@H](CCCNC(N)=O)C(=O)N2` [Ex. 52] (cyclo(YR[Cit]CRGGRR[2Nal]CY[Cit]K[dP]P); disulfide 4-11) showed a CC50 at 48 h in series [1] of 99000 nM. The IC50 at CXCR4 was found to be 3.1 nM; in the series on CCRF-CEM cells, 2.75 µM. In series [2], this compound gave a Hemolysis at 100 μM of 0%. In series [3], the “FIGS % inhibition at 200 nM” value was 95.4%.
